Data: ChEMBL document CHEMBL1135518 (J Med Chem, 2002)

Columns and labels:
[1] = molecular target: 5-hydroxytryptamine receptor 2A (Rattus norvegicus, UniProt P14842); assay: The binding affinity at 5-hydroxytryptamine 2A receptor was determined using [3H]ketanserin
[2] = molecular target: T1, Serotonin 3 (5-HT3) receptor (Rattus norvegicus, UniProt P35563+Q9JJ16); assay: The binding affinity at 5-hydroxytryptamine 3 receptor was determined using [3H]LY-278584; assay type: protein-complex assay
T1 sequence (P35563 whole entry): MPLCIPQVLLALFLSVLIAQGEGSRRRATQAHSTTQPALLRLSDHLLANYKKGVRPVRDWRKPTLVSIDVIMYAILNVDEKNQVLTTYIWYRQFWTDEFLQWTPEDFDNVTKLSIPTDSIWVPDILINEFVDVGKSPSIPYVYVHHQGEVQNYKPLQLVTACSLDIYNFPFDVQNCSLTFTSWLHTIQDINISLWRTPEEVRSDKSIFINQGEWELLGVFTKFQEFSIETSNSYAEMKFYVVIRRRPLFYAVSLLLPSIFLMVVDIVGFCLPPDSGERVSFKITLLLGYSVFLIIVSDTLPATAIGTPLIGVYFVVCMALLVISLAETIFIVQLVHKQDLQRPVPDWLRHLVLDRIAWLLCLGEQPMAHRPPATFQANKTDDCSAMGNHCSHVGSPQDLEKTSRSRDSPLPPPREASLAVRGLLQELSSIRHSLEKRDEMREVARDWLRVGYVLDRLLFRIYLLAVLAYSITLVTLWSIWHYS
T1 sequence (Q9JJ16 whole entry): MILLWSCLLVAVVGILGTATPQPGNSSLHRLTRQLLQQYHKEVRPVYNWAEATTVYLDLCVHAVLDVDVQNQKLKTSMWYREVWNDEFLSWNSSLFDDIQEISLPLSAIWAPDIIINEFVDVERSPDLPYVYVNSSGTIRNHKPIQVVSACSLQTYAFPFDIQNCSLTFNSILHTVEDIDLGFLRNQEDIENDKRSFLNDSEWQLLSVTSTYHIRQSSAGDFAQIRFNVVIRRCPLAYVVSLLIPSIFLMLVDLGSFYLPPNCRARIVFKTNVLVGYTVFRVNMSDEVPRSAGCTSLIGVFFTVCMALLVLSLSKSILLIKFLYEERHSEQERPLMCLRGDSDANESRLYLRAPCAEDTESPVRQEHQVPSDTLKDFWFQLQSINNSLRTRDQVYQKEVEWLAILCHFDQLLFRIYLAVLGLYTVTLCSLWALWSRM

[3] = molecular target: Sodium-dependent serotonin transporter (Rattus norvegicus, UniProt P31652); assay: The binding affinity at the 5-HT reuptake sites determined using competition binding assay
Chain of Sodium-dependent serotonin transporter (P31652 whole entry): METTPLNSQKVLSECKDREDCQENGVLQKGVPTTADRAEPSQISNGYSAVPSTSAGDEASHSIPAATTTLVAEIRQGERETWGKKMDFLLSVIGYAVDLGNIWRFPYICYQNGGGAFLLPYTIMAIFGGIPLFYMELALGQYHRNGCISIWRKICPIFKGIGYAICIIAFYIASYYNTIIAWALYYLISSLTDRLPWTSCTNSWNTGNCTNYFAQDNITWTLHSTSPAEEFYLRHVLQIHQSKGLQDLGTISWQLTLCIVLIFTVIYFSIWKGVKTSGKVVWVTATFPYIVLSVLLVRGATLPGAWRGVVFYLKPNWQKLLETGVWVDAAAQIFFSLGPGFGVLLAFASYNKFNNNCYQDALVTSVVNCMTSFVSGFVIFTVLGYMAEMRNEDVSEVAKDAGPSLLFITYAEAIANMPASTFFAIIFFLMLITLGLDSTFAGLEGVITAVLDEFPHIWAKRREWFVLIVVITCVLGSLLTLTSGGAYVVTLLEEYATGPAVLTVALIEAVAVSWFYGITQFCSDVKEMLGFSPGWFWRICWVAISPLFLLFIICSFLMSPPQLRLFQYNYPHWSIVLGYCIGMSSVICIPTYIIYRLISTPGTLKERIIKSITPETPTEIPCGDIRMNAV

[4] = molecular target: T2, 5-hydroxytryptamine receptor 1A (Homo sapiens, UniProt P08908); assay: The binding affinity at the 5-hydroxytryptamine 1A receptor determined using [3H]5-CT
T2 sequence (P08908 whole entry): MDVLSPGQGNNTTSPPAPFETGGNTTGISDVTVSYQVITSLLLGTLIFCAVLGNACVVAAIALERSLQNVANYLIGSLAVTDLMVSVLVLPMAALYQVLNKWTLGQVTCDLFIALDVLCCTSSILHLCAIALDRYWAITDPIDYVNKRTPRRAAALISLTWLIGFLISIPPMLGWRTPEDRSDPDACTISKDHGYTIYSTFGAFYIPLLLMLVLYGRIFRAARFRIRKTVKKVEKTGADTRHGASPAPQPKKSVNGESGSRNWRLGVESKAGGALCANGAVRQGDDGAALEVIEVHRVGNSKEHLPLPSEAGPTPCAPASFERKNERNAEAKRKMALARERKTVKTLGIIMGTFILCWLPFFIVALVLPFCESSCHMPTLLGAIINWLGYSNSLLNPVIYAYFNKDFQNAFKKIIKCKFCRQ

[5] = molecular target: Norepinephrine transporter (Rattus norvegicus, UniProt Q9WTR4); assay: The binding affinity at the Norepinephrine transporter reuptake sites determined using competition binding assay
Chain of Norepinephrine transporter (Q9WTR4 whole entry): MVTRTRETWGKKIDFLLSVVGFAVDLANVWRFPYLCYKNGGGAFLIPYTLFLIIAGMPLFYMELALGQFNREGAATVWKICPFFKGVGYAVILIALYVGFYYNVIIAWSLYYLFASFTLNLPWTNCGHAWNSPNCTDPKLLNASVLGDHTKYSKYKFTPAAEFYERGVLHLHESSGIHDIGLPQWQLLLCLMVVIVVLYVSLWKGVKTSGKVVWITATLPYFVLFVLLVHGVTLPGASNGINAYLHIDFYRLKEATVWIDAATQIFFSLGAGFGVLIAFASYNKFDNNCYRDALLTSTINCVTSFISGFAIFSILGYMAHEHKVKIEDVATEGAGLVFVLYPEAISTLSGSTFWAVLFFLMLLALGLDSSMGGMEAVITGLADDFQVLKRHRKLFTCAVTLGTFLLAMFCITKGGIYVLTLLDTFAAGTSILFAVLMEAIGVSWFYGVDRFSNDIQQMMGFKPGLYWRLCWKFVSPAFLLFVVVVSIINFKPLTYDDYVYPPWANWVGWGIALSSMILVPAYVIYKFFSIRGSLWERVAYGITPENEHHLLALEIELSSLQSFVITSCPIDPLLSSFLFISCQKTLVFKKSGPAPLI

Chain of 5-hydroxytryptamine receptor 2A (P14842 whole entry): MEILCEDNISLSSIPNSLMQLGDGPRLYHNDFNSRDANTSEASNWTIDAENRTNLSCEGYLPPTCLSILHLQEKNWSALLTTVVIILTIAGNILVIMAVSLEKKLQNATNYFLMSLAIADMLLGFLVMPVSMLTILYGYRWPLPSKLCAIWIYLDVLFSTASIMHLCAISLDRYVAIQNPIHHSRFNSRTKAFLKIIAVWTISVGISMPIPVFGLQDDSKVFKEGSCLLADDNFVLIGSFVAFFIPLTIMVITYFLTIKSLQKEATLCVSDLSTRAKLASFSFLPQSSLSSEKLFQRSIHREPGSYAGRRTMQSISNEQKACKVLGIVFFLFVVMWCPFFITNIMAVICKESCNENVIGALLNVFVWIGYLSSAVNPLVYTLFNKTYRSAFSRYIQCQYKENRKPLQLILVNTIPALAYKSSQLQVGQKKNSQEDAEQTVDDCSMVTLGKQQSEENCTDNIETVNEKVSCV

Structure (SMILES)	IC50 [1] [µM]	Ki [2] [µM]	IC50 [3] [µM]	Ki [4] [µM]	IC50 [5] [µM]
COc1cccc2c1N1CCN(C)C[C@@H]1c1ccccc1C2	0.00055	> 5	1.65	0.8	1.24
COc1cccc2c1N1CCN(C)C[C@H]1c1ccccc1C2	0.00075	1.65	> 10	0.255	2.86
COc1cccc2c1N1CCN(C)CC1c1ccccc1C2 (racemic)	0.0007	2.9	2.9	0.345	1.78
